Measured values published in article PMC5620609 (Pharmaceuticals, 2017).
Where two headings read alike, the source gives them in different places.

What was measured:
[1] = tested on: human colon cancer cell line HCT-116; assay: In vitro growth inhibition (CellTiter-Glo), HCT-116; type: cell-based; conditions: HCT 116 TP53(-/-), read-out: GI50 (concentration of drug that inhibited 50% of cell growth), 72 h exposure
Method: (§1) Cells were grown in an appropriate medium for the cell line of interest; 96 well plates of each cell line were seeded with 5000 cells per well and left overnight. Drug exposed cells were incubated at 37 °C for 72 h. At the end of the 72 h exposure period, plates were removed for the CellTiter-Glo® assay. Luminescence was recorded on a Synergy 4.0. Assays were performed in triplicate.

[2] = tested on: TP53 WT colon cancer cell line Ls174T; assay: In vitro growth inhibition (CellTiter-Glo), Ls174T; type: cell-based; conditions: Homo sapiens, 72 h exposure
Method: Further testing was performed in colon cancer cell lines.
as §1

THP-1 cells = assay: Morphology (Giemsa stain) of THP-1 cells; type: cell-based, human; conditions: 6 days following exposure
[3] = tested on: HL-60 human leukemia (TP53 null) xenograft; type: in vivo
Method: (§2) Drugs were administered IV for 3 consecutive days a week for 3 weeks. HL-60 is a human leukemia cell line (TP53 null) that is part of the NCI 60 cell line panel and can be grown in nude mice.
(§3) First, 10^7 tumor cells from culture in Matrigel™ of HL-60 human leukemia or LoVo colon cancer were implanted subcutaneously in the flank of 1.75-fold the number of NCr-nu/nu mice required for the study. Study initiation began when the required number of mice had tumors of approximately: • 100 to 250 mm^3 (target group mean tumor volume of approximately 175 mm^3) for the first set of studies. • 14 to 63 mm^3 (target group mean tumor weight of approximately 30 mm^3) for the second set of studies.
(§4) Mice with tumors in the proper volume range were arbitrarily assigned to groups. Mice received test article on 3 consecutive days per week for 3 weeks. Mice were observed daily for mortality and moribundity with weights and the tumor measurements taken twice weekly. Tumor volume was determined using the formula for an ellipsoid sphere: Length × Width^2/2 = Volume (mm^3). The experiments were scheduled to last for 60 days from the day of tumor implant. Any animal whose weight decreased more than 30% from the weight on the first day of treatment or whose tumor reached 4000 mm^3 in volume, ulcerated or sloughed off, or was moribund was euthanized prior to study termination.

[4] = tested on: LoVo colon cancer (TP53 WT) xenograft; type: in vivo
Method: as §2, §3, §4

MOLT-4 = assay: NCI 60 cell line panel: MOLT-4; type: cell-based, human; conditions: Leukemia, TP53 null/mutant
From the text: (§5) Details of the NCI 60 One Dose Screen are well known and available online.

SR = assay: NCI 60 cell line panel: SR; type: cell-based, human; conditions: Leukemia, TP53 wild type
From the text: as §5

A549/ATCC = assay: NCI 60 cell line panel: A549/ATCC; type: cell-based, human; conditions: NSCL, TP53 wild type
From the text: as §5

NCI-H23 = assay: NCI 60 cell line panel: NCI-H23; type: cell-based, human; conditions: NSCL, TP53 null/mutant
From the text: as §5

NCI-H322M = assay: NCI 60 cell line panel: NCI-H322M; type: cell-based, human; conditions: NSCL, TP53 null/mutant
From the text: as §5

NCI-H522 = assay: NCI 60 cell line panel: NCI-H522; type: cell-based, human; conditions: NSCL, TP53 null/mutant
From the text: as §5

HCC-2998 = assay: NCI 60 cell line panel: HCC-2998; type: cell-based, human; conditions: Colon cancer, TP53 null/mutant
From the text: as §5

HCT-15 = assay: NCI 60 cell line panel: HCT-15; type: cell-based, human; conditions: Colon cancer, TP53 null/mutant
From the text: as §5

HT29 = assay: NCI 60 cell line panel: HT29; type: cell-based, human; conditions: Colon cancer, TP53 null/mutant
From the text: as §5

SW-620 = assay: NCI 60 cell line panel: SW-620; type: cell-based, human; conditions: Colon cancer, TP53 null/mutant
From the text: as §5

SF-268 = assay: NCI 60 cell line panel: SF-268; type: cell-based, human; conditions: CNS cancer, TP53 null/mutant
From the text: as §5

SF-295 = assay: NCI 60 cell line panel: SF-295; type: cell-based, human; conditions: CNS cancer, TP53 null/mutant
From the text: as §5

SF-539 = assay: NCI 60 cell line panel: SF-539; type: cell-based, human; conditions: CNS cancer, TP53 null/mutant
From the text: as §5

LOX IMVI = assay: NCI 60 cell line panel: LOX IMVI; type: cell-based, human; conditions: Melanoma, TP53 wild type
From the text: as §5

M14 = assay: NCI 60 cell line panel: M14; type: cell-based, human; conditions: Melanoma, TP53 null/mutant
From the text: as §5

MDA-MB-435 = assay: NCI 60 cell line panel: MDA-MB-435; type: cell-based, human; conditions: Melanoma, TP53 null/mutant
From the text: as §5

SK-MEL-2 = assay: NCI 60 cell line panel: SK-MEL-2; type: cell-based, human; conditions: Melanoma, TP53 null/mutant
From the text: as §5

SK-MEL-28 = assay: NCI 60 cell line panel: SK-MEL-28; type: cell-based, human; conditions: Melanoma, TP53 null/mutant
From the text: as §5

SK-MEL-5 = assay: NCI 60 cell line panel: SK-MEL-5; type: cell-based, human; conditions: Melanoma, TP53 wild type
From the text: as §5

UACC-62 = assay: NCI 60 cell line panel: UACC-62; type: cell-based, human; conditions: Melanoma, TP53 wild type
From the text: as §5

IGROV-1 = assay: NCI 60 cell line panel: IGROV-1; type: cell-based, human; conditions: Ovarian cancer, TP53 null/mutant
From the text: as §5

OVCAR-5 = assay: NCI 60 cell line panel: OVCAR-5; type: cell-based, human; conditions: Ovarian cancer, TP53 wild type
From the text: as §5

OVCAR-8 = assay: NCI 60 cell line panel: OVCAR-8; type: cell-based, human; conditions: Ovarian cancer, TP53 null/mutant
From the text: as §5

SK-OV-3 = assay: NCI 60 cell line panel: SK-OV-3; type: cell-based, human; conditions: Ovarian cancer, TP53 null/mutant
From the text: as §5

A498 = assay: NCI 60 cell line panel: A498; type: cell-based, human; conditions: Renal cancer, TP53 wild type
From the text: as §5

CAKI-1 = assay: NCI 60 cell line panel: CAKI-1; type: cell-based, human; conditions: Renal cancer, TP53 wild type
From the text: as §5

TK-10 = assay: NCI 60 cell line panel: TK-10; type: cell-based, human; conditions: Renal cancer, TP53 null/mutant
From the text: as §5

UO-31 = assay: NCI 60 cell line panel: UO-31; type: cell-based, human; conditions: Renal cancer, TP53 wild type
From the text: as §5

PC-3 = assay: NCI 60 cell line panel: PC-3; type: cell-based, human; conditions: Prostate cancer, TP53 null/mutant
From the text: as §5

## Nc1ncn([C@@H]2O[C@H](CO)[C@@H](O)C2(F)F)c(=O)n1 [NUC013, 5-aza-2′,2′-difluroro deoxycytidine]
[1]
  GI50: 4540 nM
[2]
  GI50: 1300 nM
THP-1 cells
  morphologic changes: morphologic changes suggestive of cell differentiation
[3]; HL-60 first study, NUC013 5.8 mg/kg IV, saline MS = 25 days
  median survival (MS): 28.5 days
[3]; HL-60 first study, NUC013 equimolar dose (5.8 mg/kg) IV
  mice died or euthanized for moribundity (out of 10): none
[3]; HL-60 second study, NUC013 20 mg/kg IV, saline MS = 26.5 days
  median survival (MS): 32 days
[3]; HL-60 second study, NUC013 20 mg/kg IV, study days 21 and 25
  tumor volume lower than saline control (maximum): 47.8%
[4]; LoVo first study, NUC013 5.8 mg/kg IV
  median survival (MS): 60 days
[4]; LoVo first study, NUC013 equimolar dose (5.8 mg/kg) IV, study day 27
  mean tumor volume lower compared to controls: 24.3%
[4]; LoVo second study, NUC013 20 mg/kg IV
  median survival (MS): undefined
[4]; LoVo second study, NUC013 20 mg/kg IV, study day 30
  mean tumor volume lower compared to controls: 50.9%
[4]; LoVo second study, NUC013 40 mg/kg IV
  median survival (MS): undefined
[4]; LoVo second study, NUC013 40 mg/kg IV, study day 30
  mean tumor volume lower compared to controls: 53.7%
MOLT-4
  Growth (%) at 10 µM: 35.63%
SR
  Growth (%) at 10 µM: 14.99%
A549/ATCC
  Growth (%) at 10 µM: 37.91%
NCI-H23
  Growth (%) at 10 µM: 30.61%
NCI-H322M
  Growth (%) at 10 µM: 70.00%
NCI-H522
  Growth (%) at 10 µM: 86.91%
HCC-2998
  Growth (%) at 10 µM: 60.44%
HCT-15
  Growth (%) at 10 µM: 52.19%
HT29
  Growth (%) at 10 µM: 70.09%
SW-620
  Growth (%) at 10 µM: 51.21%
SF-268
  Growth (%) at 10 µM: 65.39%
SF-295
  Growth (%) at 10 µM: 77.93%
SF-539
  Growth (%) at 10 µM: 22.25%
LOX IMVI
  Growth (%) at 10 µM: 34.53%
M14
  Growth (%) at 10 µM: 15.55%
MDA-MB-435
  Growth (%) at 10 µM: 53.04%
SK-MEL-2
  Growth (%) at 10 µM: 104.47%
SK-MEL-28
  Growth (%) at 10 µM: 78.46%
SK-MEL-5
  Growth (%) at 10 µM: 70.84%
UACC-62
  Growth (%) at 10 µM: 47.29%
IGROV-1
  Growth (%) at 10 µM: 56.77%
OVCAR-5
  Growth (%) at 10 µM: 86.95%
OVCAR-8
  Growth (%) at 10 µM: 49.95%
SK-OV-3
  Growth (%) at 10 µM: 71.09%
A498
  Growth (%) at 10 µM: 38.04%
CAKI-1
  Growth (%) at 10 µM: 27.86%
TK-10
  Growth (%) at 10 µM: 91.13%
UO-31
  Growth (%) at 10 µM: 39.00%
PC-3
  Growth (%) at 10 µM: 63.57%
